Like-named read-outs stand apart in the source and are kept apart here.
How the values were obtained:
5α-hydroxylase = conditions: 100 μM inhibitor; cited from earlier work
[1] = target: T1, recombinant taxoid 5α-hydroxylase (clone S1) (Taxus cuspidata, UniProt Q6WG30); assay: Substrate binding spectra with Sf9 microsomes enriched in recombinant 5α-hydroxylase; conditions: no NADPH
T1 construct: the S1 ORF was amplified using Pfu DNA polymerase and gene-specific primers containing a BamHI site immediately upstream of the start codon; made in house; host or cells: Spodoptera frugiperda Sf9 cells (baculovirus, pFastBac1); microsomal membranes
T1 sequence (Q6WG30 with tags, fused parts or gaps): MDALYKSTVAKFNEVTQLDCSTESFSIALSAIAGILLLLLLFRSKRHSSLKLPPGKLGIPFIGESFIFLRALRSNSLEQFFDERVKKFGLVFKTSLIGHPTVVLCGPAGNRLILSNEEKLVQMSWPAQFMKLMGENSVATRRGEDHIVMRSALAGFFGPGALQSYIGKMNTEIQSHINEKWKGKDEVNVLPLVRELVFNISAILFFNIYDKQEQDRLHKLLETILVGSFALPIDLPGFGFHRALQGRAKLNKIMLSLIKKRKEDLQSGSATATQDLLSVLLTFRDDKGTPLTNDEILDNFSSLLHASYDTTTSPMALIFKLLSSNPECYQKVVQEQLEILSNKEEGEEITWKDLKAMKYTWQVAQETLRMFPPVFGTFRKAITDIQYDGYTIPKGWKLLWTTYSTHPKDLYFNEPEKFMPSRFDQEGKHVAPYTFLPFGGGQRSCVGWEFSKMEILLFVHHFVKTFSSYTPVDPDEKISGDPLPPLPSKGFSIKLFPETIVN
Procedure: Microsomes from S. frugiperda cells enriched with 200 pmol recombinant taxoid 5α-hydroxylase (clone S1) were employed. Taxa-4(20),11(12)-diene was assayed over a concentration range from 0.1 to 10 μM, and a binding constant (Ks) of 4±1 μM was determined (upper graph). Taxa-4(5),11(12)-diene was assayed over a concentration range of 0.1 to 20 μM and a binding constant (Ks) of 6.5±1.5 μM was determined (lower graph).
Binding spectra for both taxadiene isomers (in the absence of NADPH) were then recorded using the Sf9 cell microsomes enriched in the recombinant 5α-hydroxylase. Substrate binding spectra were obtained as described by Schenkin and Jausson, Methods Mol. Biol. (Cytochrome P450 Protocols), 107:25-33, 1998) using a Perkin-Elmer Lambda 18 spectrophotometer (Haudenschild et al., Arch. Biochem. Biophys., 379:127-136, 2000). Substrate binding spectra were recorded with up to 200 pmol of recombinant microsomal cytochrome P450 enzyme (as determined by CO-difference spectral analysis) per cuvette in 100 mM sodium phosphate buffer at pH 7.5. In preparation for binding studies, the taxadiene isomers were each dissolved in DMSO and 1 μl additions to the sample were made to a final concentration of 1.5% (v/v). For data analysis, Spectrum for Windows (Perkin-Elmer Corp., Wellesey, Mass.) and Sigmaplot 7.0 (SPSS Inc., Chicago, Ill.) were employed and experiments were run in triplicate.

[2] = system: microsomal taxa-4(5),11(12)-diene isomerase activity; assay: Assay for microsomal taxadiene isomerase activity and pH-dependent isomerization; assay type: biochemical; conditions: Taxus or Spodoptera microsomes, no NADPH or no O2, or CO, miconazole, clotrimazole, boiled controls
Procedure: The assay for microsomal taxa-4(5),11(12)-diene isomerase activity (and the reverse isomerization) was carried out under standard cytochrome P450 oxygenase conditions but in the absence of NADPH or O2, or in the presence of inhibitory concentrations of CO, miconazole or clotrimazole (under conditions described previously for which the rate of 5α-hydroxylation is negligible (Hefner et al., Chem. Biol., 3:479489, 1996)). A number of additional, potential cofactors were also tested, including FAD, FADH2, FMN, FMNH2, NAD+, NADH and NADP+ (all at 2.5 mM), as well as MgCl2 (at 5.0 mM). The possibility of pH-dependent isomerization was tested by incubating each isomer (100 μM) in phosphate buffer (pH 4 to 10) for 12 hours at 31° C., with separation of isomers as described previously (Williams et al., Arch. Biochem. Biophys., 379:137-146, 2000).

[3] = target: T1, recombinant taxoid 5α-hydroxylase (clone S1); assay: Kinetic evaluation with Sf9 microsomes enriched in recombinant 5α-hydroxylase (radio-HPLC, Michaelis-Menten); assay type: biochemical; conditions: recombinant enzyme, 200 μM NADPH plus regenerating system
Procedure: Kinetic constants for both isomers were next evaluated (at a saturating 200 μM concentration of NADPH plus regenerating system; Shimada and Yamazai, Meth. Mol. Biol., 107:85-93, 1998). The isolated microsomes were resuspended in 50 mM Hepes, pH 7.5, containing 1 mM DTT and 5% (v/v) glycerol, and the 1 ml reactions (˜600 μg protein, 50 μM substrate dissolved in DMSO, and the requisite cofactors (e.g., NADPH plus regenerating system) were run as described previously, with the identical protocols for product analysis (Jennewein et al., Proc. Natl. Acad. Sci. USA, 98:13595-13600, 2001). DMSO was without influence on the reaction. For kinetic evaluation, following the establishment of linear reaction conditions in protein concentration and time, the response to substrate concentration was plotted by the Michaelis-Menten method (Sigmaplot 7.0) using the calibrated radio-HPLC protocol for product determination Data from three independent experiments were pooled and the line of best fit taken (R^2>0.99).

[4] = target: T2, clone S1 taxoid 5α-hydroxylase in Saccharomyces cerevisiae WAT11 (Taxus cuspidata, UniProt Q6WG30); assay: In vivo feeding of labeled substrate to yeast expressing clone S1, radio-HPLC and GC-MS of products; assay type: cell-based; conditions: 30 μM substrate
T2 construct: expressed in transfected cells; host or cells: Saccharomyces cerevisiae strain WAT11
T2 sequence (Q6WG30 with tags, fused parts or gaps limits assumed): as the sequence (Q6WG30 with tags, fused parts or gaps) above
Source text: This in vivo feeding protocol eliminated the uncertainties associated with microsome isolation and in vitro assay, including the instability of P450 oxygenases in yeast membranes (Schoendorf et al., Proc. Nail. Acad. Sci. USA, 98:1501-1506, 2001).
Transformed and induced yeast cells were harvested by centrifugation as described in Example 2. As a negative control for the feeding experiments, the yeast host was transformed with the pYES2.1/V5-HIS-TOPO™ vector containing a β-glucuronidase insert instead of the cytochrome P450 S1 clone. The cells were resuspended in 3 ml of fresh YPLA medium to which 30 μM of the labeled test substrate was added. Test substrates included:
The cell and test substrate suspension was incubated overnight at 30° C. with mixing (250 rpm). The incubation mixture was then treated for 15 minutes in a sonication bath and extracted twice with 3 ml of hexane:ethyl acetate (4:1 v/v). The organic extract was then dried under N2, the residue dissolved in 100 μl of acetonitrile, and an aliquot was separated by reversed-phase radio-HPLC (250 mm×4.6 mm column of Alltech (Deerfield, Ill.) Econosil C18 (5 μm); flow rate of 1 ml/min; with radio-detection of the effluent (Flow-One-Beta Series A-1000, Radiomatic Corp., Meriden, Conn.)). The following gradient was employed: 0-5 minutes at 100% Solvent A (97.99% H2O with 2% CH3CN and 0.01% H3PO4 (v/v)), 5-15 minutes at 0-50% Solvent B (99.99% CH3CN with 0.01% H3PO4 (v/v)), 15-55 minutes at 50-100% Solvent B, 55-65 minutes at 100% Solvent B, 65-70 minutes at 0-100% Solvent A, 70-75 minutes at 100% Solvent A. The HPLC eluant was collected in 1 minute fractions and the appropriate fractions containing the radiolabeled product were combined, dried under a stream of N2, and dissolved in the minimum volume of benzene for GC-MS analysis.
GC-MS analyses were performed on a Hewlett-Packard 6890 GC-MSD system using a ZB-5 capillary column (Phenomenex (Torrance, Calif.); 30 m length; 0.25 mm inner diameter; coated with a 0.25 μm film of phenyl (5%) polysiloxane). Cool on-column injection was used, with He flow rate of 0.7 ml/min and a temperature program from 40° C. to 320° C. at 20° C./min. Spectra were recorded at 70 eV.

taxoid 5α-hydroxylase = taxoid 5α-hydroxylase (Taxus cuspidata, UniProt Q6WG30); assay: Kinetic evaluation of taxadiene isomers, average of recombinant and T. media microsomes (FIG. 4); assay type: biochemical; conditions: average of recombinant (Sf9) and T. media microsomes; substrate 1 to 500 μM
taxoid 5α-hydroxylase, sequence (Q6WG30 whole entry): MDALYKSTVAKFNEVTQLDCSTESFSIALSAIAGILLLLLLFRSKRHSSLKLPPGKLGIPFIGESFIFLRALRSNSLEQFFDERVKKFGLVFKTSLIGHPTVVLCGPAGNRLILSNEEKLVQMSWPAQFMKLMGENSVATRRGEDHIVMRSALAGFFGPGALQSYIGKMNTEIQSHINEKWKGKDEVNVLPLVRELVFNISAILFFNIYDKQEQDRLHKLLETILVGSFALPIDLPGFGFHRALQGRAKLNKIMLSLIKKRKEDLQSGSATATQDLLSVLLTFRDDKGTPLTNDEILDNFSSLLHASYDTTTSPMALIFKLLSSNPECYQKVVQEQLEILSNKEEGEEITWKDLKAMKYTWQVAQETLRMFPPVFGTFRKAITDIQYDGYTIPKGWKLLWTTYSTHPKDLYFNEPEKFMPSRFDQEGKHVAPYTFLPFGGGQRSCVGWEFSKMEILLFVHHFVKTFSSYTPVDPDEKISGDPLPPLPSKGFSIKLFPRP
Procedure: Taxa-4(20),11(12)-diene (◯) and taxa-4(5),11(12)-diene (●) were evaluated with microsomes from S. formgiperda cells enriched with 50 pmol recombinant taxoid 5α-hydroxylase (A), and with microsomes from T. media suspension cells containing about 50 pmol of total native cytochrome P450 (B). Substrate Concentration range was varied from 1 to 500 μM in all cases.

[5] = system: microsomal 5α-hydroxylase activity; assay: Kinetic evaluation with Taxus suspension cell microsomes (radio-HPLC, total product); assay type: biochemical, Taxus media hicksii; conditions: T. media suspension cell microsomes, [20-3H] substrate
Procedure: Preparation of Taxus suspension cell microsomes and assays for microsomal 5α-hydroxylase activity were carried out as previously described (Hefner et al., Chem. Biol., 3:479489, 1996; Lovy Wheeler et al., Arch. Biochem. Biophys., 390:265-278, 2001) with the following modifications: Unelicited Taxus media hicksii cells were harvested 14 days after transfer, separated from the media, frozen in liquid N2 and ground to a fine powder with a mortar and pestle, with extraction and microsome preparation as described by Lovy Wheeler et al. (Arch. Biochem. Biophys., 390:265-278, 2001). The previously described radio-HPLC-based assay (Lovy Wheeler et al., Arch. Biochem. Biophys., 390:265-278, 2001) was employed to separate the substrate from taxadien-5α-ol and polyols derived therefrom which were summed as “total product” for the purpose of rate determination.
Following the confirmation of linear reaction conditions in protein concentration and time, kinetic constants were determined for both [20-3H]taxa-4(5),11(12)-diene and [20-3H]taxa-4(20),11(12)-diene with the optimized assay (Hefner et al., Chem. Biol., 3:479-489, 1996). The radio-HPLC-based assay previously described by Lovy Wheeler et al. (Arch. Biochem. Biophys., 390:265-278, 2001) was employed to permit summing of taxadien-polyols derived subsequently from the initially formed taxadienol product generated by this microsomal system that contains all of the downstream cytochrome P450 taxoid oxygenases of the pathway (Lovy Wheeler et al., Arch. Biochem. Biophys., 390:265-278, 2001).
Thus, one or more constituents of the crude Taxus microsomal protein preparation catalyze the reaction of taxa-4(5),11(12)-diene and taxa-4(20),11(12)-diene to the corresponding taxadienols.

[6] = system: native microsomal 5α-hydroxylase; conditions: native microsome preparations from yew stem tissue, determined previously; cited from earlier work
taxoid 13α-hydroxylase = target: T3, taxoid 13α-hydroxylase (Taxus cuspidata, UniProt Q8W4T9); assay: Feeding to yeast that functionally express taxoid 13α-hydroxylase; assay type: cell-based; conditions: product of clone S1 enzyme fed to 13α-hydroxylase yeast
T3 construct: expressed in transfected cells
T3 sequence (Q8W4T9 whole entry): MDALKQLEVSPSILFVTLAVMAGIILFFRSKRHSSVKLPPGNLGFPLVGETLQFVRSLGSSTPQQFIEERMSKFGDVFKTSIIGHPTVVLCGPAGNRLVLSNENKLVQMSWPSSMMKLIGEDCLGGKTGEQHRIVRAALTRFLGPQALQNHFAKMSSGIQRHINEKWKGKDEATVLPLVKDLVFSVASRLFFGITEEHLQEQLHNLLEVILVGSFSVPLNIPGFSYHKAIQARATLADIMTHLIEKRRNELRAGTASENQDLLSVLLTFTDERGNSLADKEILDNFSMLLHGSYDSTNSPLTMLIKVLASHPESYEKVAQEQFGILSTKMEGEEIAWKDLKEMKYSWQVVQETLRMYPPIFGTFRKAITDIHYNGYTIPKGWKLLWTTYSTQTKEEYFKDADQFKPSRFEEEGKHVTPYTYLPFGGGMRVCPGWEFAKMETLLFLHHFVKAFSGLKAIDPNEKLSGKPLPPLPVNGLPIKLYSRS
Source text: The taxa-4(20),11(12)-dien-5α-ol radiolabeled product of the clone S1 enzyme was isolated by HPLC, and the purified material was fed to yeast that functionally express the previously characterized taxoid 13α-hydroxylase (Jennewein et al., Proc. Natl. Acad. Sci. USA, 98:13595-13600, 2001). As discussed above, 13α-hydroxylation of a paclitaxel intermediate is believed to follow 5α-hydroxylation in the paclitaxel biosynthetic pathway (Floss and Mocek, Taxol: Science and Applications, CRC Press, Boca Raton, 191-208, 1995; and Croteau et al., Curr. Top. Plant Physiol. 15:94-104, 1996). Thus, as expected, taxa-4(20),11(12)-dien-5α-ol was quantitatively converted to taxa-4(20),11(12)-dien-5α,13α-diol by the 13α-hydroxylase.

[7] = FIG. 3, microsomes with 200 pmol recombinant enzyme, read-out: binding constant (Ks)
[8] = over a 100-fold range of substrate concentrations, pH 7.5, read-out: substrate binding constant (Ks), variation
[9] = overnight at 30° C., radio-HPLC

SMILES	hydroxylation activity in the presence of the inhibitor (5α-hydroxylase)	Kd [1, 7] [µM]	Kd [1, 8] [µM]	isomerization to the other taxadiene positional isomer [2]	Vrel [3]	share of minor product taxadien-diol [4, 9] [%]	share of principal product taxa-4(20),11(12)-dien-5α-ol [4, 9] [%]	Vrel (average) (taxoid 5α-hydroxylase)	Km [5] [µM]	Vrel [5]	other results
Clc1ccccc1C(c1ccccc1)(c1ccccc1)n1ccnc1 [clotrimazole]	negligible	–	–	–	–	–	–	–	–	–	–
Clc1ccc(COC(Cn2ccnc2)c2ccc(Cl)cc2Cl)c(Cl)c1 (stereo not shown) [miconazole]	negligible	–	–	–	–	–	–	–	–	–	–
CC1=CCC[C@@]2(C)CCC3=C(C)CC[C@@H](C[C@H]12)C3(C)C [taxa-4(5),11(12)-diene]	–	6.5 ± 1.5	5 to 8	No isomerization	100	< 50	> 92	100	48	100	isomerization to the other taxadiene positional isomer ([2]; listed as 3): not observed; conversion to more polar products [4, 9]: almost quantitatively; Km [6]: ~6 µM
C=C1[C@H]2C[C@@H]3CCC(C)=C(CC[C@]2(C)CC[C@@H]1O)C3(C)C [taxa-4(20),11(12)-dien-5α-ol]	–	–	–	–	–	–	–	–	–	–	conversion to taxa-4(20),11(12)-dien-5α,13α-diol (taxoid 13α-hydroxylase): quantitatively
C=C1CCC[C@@]2(C)CCC3=C(C)CC[C@@H](C[C@H]12)C3(C)C [taxa-4(20),11(12)-diene]	–	4 ± 1	3 to 5	No isomerization	120	~8	~90	135	27	150	share of other minor metabolites in product mix ([4]; also formed in negative control): ~2%
